Data on 1 substance can be found in US20200207829A1, “CHIMERIC RECEPTORS” (Oxford University Innovation Limited, priority 2017, published 2020).

For this experiment, the target named is T1, dCas9(N/C)-synLPAR1 (Homo sapiens, UniProt Q92633).
T1 construct: TEV cleavage site ENLYFQL (TCS(Q'L)) (C); P2A + puromycin resistance protein (C, cleaved yes); TEV cleavage site ENLYFQG (TCS(Q'G)) (C); T2A + MCP-P65-HSF1 (C, cleaved yes); expressed in transfected cells; host or cells: HTLA cells (HEK-293 stably expressing beta-arrestin2-TEV fusion)
The experiment in a line: LPA dose-response of dCas9(N/C)-synLPAR1 (EYFP activation score, HTLA cells). The class given is cell-based. The note with it: sgEYFP, read-out: EC50 of LPA dose-dependent activation. The protocol:
Transfection mixtures were vortexed for 10 seconds and incubated at room temperature for 20-30 minutes. Full media was removed from cells and replaced with experiment-specific transfection media prior to adding the DNA:PEI transfection mix as follows. For dCas9(N/C)-synBDKBR2 experiments, HTLA cells were transfected in DMEM+2% (v/v) FBS supplemented with bradykinin at indicated concentrations. The bradykinin transfection media was replaced after 20 hours with HTLA full media also supplemented with bradykinin, and incubated for an additional 24 hours. […]
For all EYFP reporter experiments, media was removed 44 or 48 hours post-transfection and cells were washed with PBS (1× phosphate buffer saline), trypsinized (0.05% trypsin-EDTA, Cat. #25300062, Gibco), and kept in 1×PBS on ice. […] 100,000 total events were recorded for each condition. Data was analysed and compensated using the FlowJo package (FLOWJO LLC). To calculate an EYFP activation score which integrates both reporter fluorescence intensity and % of activated cells the following formula was used as previously described (Xie et al., 2011). […]
The numerator (% EYFP^+ve×EYFP^mean) provides a weighted mean fluorescence accounting both for the strength of reporter activation (EYFP^mean) as well as population level activation (% EYFP^+ve), which penalizes OFF-state leakage. […]

T1 sequence (Q92633 with tags, fused parts or gaps): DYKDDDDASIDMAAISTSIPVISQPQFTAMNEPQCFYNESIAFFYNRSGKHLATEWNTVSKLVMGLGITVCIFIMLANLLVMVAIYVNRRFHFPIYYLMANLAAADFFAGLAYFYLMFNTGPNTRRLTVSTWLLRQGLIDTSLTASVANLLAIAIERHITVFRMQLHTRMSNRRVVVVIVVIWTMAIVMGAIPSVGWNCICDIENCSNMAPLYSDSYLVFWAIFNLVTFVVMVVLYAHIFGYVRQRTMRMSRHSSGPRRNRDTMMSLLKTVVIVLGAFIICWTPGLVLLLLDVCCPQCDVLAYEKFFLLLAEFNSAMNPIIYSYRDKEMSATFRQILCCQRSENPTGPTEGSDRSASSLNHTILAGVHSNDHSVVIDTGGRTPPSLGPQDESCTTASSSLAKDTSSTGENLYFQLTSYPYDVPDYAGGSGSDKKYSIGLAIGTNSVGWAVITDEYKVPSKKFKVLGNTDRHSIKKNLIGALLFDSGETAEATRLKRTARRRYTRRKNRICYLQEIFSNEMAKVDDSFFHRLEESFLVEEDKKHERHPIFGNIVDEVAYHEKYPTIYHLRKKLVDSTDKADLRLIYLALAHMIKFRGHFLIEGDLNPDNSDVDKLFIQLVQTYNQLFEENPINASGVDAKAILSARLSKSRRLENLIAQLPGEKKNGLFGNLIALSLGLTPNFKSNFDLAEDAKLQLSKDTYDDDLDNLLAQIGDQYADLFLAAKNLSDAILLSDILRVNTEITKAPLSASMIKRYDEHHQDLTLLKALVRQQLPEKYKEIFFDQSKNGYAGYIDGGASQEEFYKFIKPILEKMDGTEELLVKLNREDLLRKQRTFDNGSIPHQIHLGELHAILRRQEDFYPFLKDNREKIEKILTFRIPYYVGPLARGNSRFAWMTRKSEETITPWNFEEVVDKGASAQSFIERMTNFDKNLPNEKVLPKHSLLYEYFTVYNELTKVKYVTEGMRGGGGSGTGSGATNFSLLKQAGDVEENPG
T1 sequence (Q92633 with tags, fused parts or gaps): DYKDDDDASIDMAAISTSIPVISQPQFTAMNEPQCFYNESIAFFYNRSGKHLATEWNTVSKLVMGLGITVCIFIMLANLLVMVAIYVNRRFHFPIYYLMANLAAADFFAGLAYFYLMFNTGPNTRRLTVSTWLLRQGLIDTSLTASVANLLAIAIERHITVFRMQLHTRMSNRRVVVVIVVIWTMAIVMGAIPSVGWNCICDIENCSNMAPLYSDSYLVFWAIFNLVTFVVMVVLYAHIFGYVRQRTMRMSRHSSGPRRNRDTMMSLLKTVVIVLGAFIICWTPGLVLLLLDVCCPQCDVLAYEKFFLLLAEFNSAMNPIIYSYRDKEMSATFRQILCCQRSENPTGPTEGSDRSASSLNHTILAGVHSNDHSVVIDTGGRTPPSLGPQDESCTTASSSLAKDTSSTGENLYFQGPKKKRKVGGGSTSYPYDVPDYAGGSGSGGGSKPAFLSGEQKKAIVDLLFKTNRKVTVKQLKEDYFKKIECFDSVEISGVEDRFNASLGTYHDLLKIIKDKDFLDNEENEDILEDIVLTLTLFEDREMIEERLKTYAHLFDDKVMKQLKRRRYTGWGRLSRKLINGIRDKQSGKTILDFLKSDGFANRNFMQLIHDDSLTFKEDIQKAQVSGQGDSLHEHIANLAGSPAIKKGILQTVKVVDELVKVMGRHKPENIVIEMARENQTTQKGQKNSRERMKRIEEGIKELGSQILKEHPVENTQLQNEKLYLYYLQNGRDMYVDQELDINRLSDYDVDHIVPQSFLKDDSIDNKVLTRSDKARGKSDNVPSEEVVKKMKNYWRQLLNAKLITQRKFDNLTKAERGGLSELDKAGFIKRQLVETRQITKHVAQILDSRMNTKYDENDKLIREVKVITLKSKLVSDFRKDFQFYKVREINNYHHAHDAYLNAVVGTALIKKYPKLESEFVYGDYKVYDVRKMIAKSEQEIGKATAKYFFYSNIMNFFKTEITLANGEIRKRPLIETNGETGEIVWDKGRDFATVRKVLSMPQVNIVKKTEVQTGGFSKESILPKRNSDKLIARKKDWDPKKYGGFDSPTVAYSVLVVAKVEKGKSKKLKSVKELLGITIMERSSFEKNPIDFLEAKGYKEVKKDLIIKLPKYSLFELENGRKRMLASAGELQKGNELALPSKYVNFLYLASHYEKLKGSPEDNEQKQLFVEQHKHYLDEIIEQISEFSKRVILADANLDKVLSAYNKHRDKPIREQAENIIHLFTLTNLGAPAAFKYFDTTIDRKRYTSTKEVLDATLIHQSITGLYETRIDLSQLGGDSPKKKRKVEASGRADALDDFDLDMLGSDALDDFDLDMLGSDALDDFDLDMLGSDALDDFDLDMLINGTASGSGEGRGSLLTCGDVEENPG

As a reminder, the EC50 is the concentration needed to bring the measured effect to its halfway point. With 1-oleoyl lysophosphatidic acid [LPA], the EC50 came to 1820 nM.
